Laboratory results published in patent publication US20150038435A1, “N-TERMINALLY MODIFIED OLIGOPEPTIDES AND USES THEREOF” (Novo Nordisk A/S, priority 2012, published 2015).
Starred links: 1 amine or outer side, 2 acyl side, 3 side chain; linkers in the order of their positions; H or OH if unused. Non-standard residues stand in square brackets, D forms with d. Primed or numbered codes have the meaning given here. No end group written: not given here. *: point of attachment. γGlu = O=C(O)[C@H](CCC(=O)[*:2])N[*:1]; βAsp = O=C(O)[C@H](CC(=O)[*:2])N[*:1]; Stearoyl = CCCCCCCCCCCCCCCCCC(=O)*; Palmitoyl = CCCCCCCCCCCCCCCC(=O)*; Myristoyl = CCCCCCCCCCCCCC(=O)*; Lauroyl = CCCCCCCCCCCC(=O)*; PEG12′ = not defined here

Columns and labels:
Chymotrypsin = experiment: Inhibition of enzymatic degradation of a model GLP-1 (FRET substrate) by chymotrypsin; type: biochemical; settings: for EC50: read-out: EC50 Chymotrypsin (0.001 mg/ml), 0.001 mg/ml chymotrypsin, 37° C., ± standard error if at least 3 measurements
From the text: (§1) The use of Förster resonance energy transfer (FRET), also known as fluorescence resonance energy transfer, substrates to monitor activity of proteolytic enzymes is known in the field (for example Anjuere, F. et al. (1993). Biochem J 291 (Pt 3), 869-73).
(§2) Model GLP-1 analogue was designed as FRET substrate by incorporation of 7-Methoxycoumarin-4-acetic acid (MCA) group as the donor chromophore and dinitrophenol group (DNP) as the acceptor chromophore.
(§3) An assay following the increase in fluorescence as a function of time was established in 96 well format using Varioskan Flash Multimode Meter (Thermo Scientific). Each well contained 70 μl of Dulbecco's phosphate buffer saline (Invitrogen catalogue #14190-094), 10 μl of 100 μM GLP-1 FRET substrate, 10 μl of N-terminally acylated peptide or oligopeptide of the invention in varying concentration and 10 μl of a stock solution of an enzyme (chymotrypsin, trypsin, elastase, etc.). The incubations were performed at 37° C. Fluorescence (320 nm excitation wavelength and 405 nm emission wavelength) was measured immediately after addition of the enzyme to the 96 well plate and also every minute for at least the next 30 minutes. The concentration of the enzyme was optimized to allow determination of slopes for the time course of initial fluorescence increase with and without the N-terminally acylated peptides or oligopeptides of the invention. The slopes were determined by linear regression of the linear part of the fluorescence trace (for example, the first 10 min of the reaction). Each assay was performed in duplicate and average of the two traces was included in the calculations. The relative effect of N-terminally acylated peptide or oligopeptides of the invention on enzymatic degradation of GLP-1 FRET substrate was obtained by comparison of the slopes achieved by the same concentration of the N-terminally acylated peptide or oligopeptides. […] This was done by plotting the slopes achieved with different concentrations of the N-terminally acylated peptide or oligopeptides of the invention as a function of their concentrations and fitting the experimental results using, for example, sigmoidal logistic regression (2 parameters, Sigma Plot v 11). Inhibition constants for the interaction between the N-terminally acylated peptide or oligopeptides of the invention and proteolytic enzymes were also obtained by performing the assay described above with varying concentrations of the inhibitor and substrate and analyzing the results, for example, by double reciprocal transformation as known to the person skilled in the art and described for example in Hubalek, F. et al., J. Med. Chem. 47, 1760-1766 (2004).
(§4) The EC50 was determined for the following compounds. EC50±standard error is reported if the results of at least 3 independent measurements were available.

Trypsin = experiment: Inhibition of enzymatic degradation of a model GLP-1 (FRET substrate) by trypsin; type: biochemical; settings: for EC50: read-out: EC50 Trypsin (0.001 mg/ml), 0.001 mg/ml trypsin, 37° C.
From the text: as §1, §2, §3, §4

[1] = compound 0.1 mM, buffer containing 8% DMSO

Row | Substance | EC50 (Chymotrypsin) [µM] | EC50 (Trypsin) [µM] | other results
1 | N-hexadecanoyl-γGlu-Ala-Ala-Pro-Phe-OH [Example 32] | 29 ± 4 | 66 | 
2 | N-tetradecanoyl-Trp-Pro-Tyr-OH [Example 153] | 38 | 43 | 
3 | N-dodecanoyl-βAla-βAla-Pro-Phe-Pro-OH [Example 6] |  |  | Slope of the initial increase in fluorescence obtained during incubation with 0.001 mg/ml Chymotrypsin (Chymotrypsin; compound 1 mM): 0.24; Slope of the initial increase in fluorescence obtained during incubation with 0.001 mg/ml Trypsin (Trypsin; compound 1 mM): 0.35
4 | N-dodecanoyl-Ala-Ala-Pro-His-OH (Lauroyl-AAPH-OH; SMILES CCCCCCCCCCCC(=O)N[C@@H](C)C(=O)N[C@@H](C)C(=O)N1CCC[C@H]1C(=O)N[C@@H](Cc1c[nH]cn1)C(=O)O) [Example 180] | > 500 |  | 
5 | N-dodecanoyl-Gly-Ala-Pro-Tyr-OH [Example 37] |  |  | Slope of the initial increase in fluorescence obtained during incubation with 0.001 mg/ml Chymotrypsin (Chymotrypsin; [1]): 0.66; Slope of the initial increase in fluorescence obtained during incubation with 0.001 mg/ml Trypsin (Trypsin; [1]): 1.78
6 | N-tetradecanoyl-γGlu-γGlu-Phe-Phe-OH [Example 171] | 452 |  | 
7 | N-hexadecanoyl-Thr-Ala-Ala-Pro-Phe-OH [Example 175] | 17 | 31 | 
8 | N-hexadecanoyl-Glu-Ala-Ala-Pro-D-Phe-OH [Example 144] | 40 | 72 | 
9 | N-dodecanoyl-Leu-Thr-Trp-Pro-Tyr-OH [Example 154] | 27 | 151 | 
10 | N-dodecanoyl-Ala-Ala-Ala-Ala-Ala-Pro-Phe-OH [Example 141] | 57 | 187 | 
11 | N-dodecanoyl-Lys-Ala-Ala-Pro-Tyr-OH [Example 44] |  |  | Slope of the initial increase in fluorescence obtained during incubation with 0.001 mg/ml Chymotrypsin (Chymotrypsin; [1]): 0.00; Slope of the initial increase in fluorescence obtained during incubation with 0.001 mg/ml Trypsin (Trypsin; [1]): 0.96
12 | N-tetradecanoyl-γGlu-γGlu-Ala-Pro-Phe-OH [Example 169] | 287 |  | 
13 | N-tetradecanoyl-γGlu-Ala-Pro-D-Phe-OH [Example 168] | 377 |  | 
14 | N-tetradecanoyl-bAsp-Ala-Ala-Pro-Phe-OH [Example 164] | 54 | 343 | 
15 | N-tetradecanoyl-Leu-betaAla-Ala-Pro-DPhe-OH [Example 145] | 83 | 43 | 
16 | N-dodecanoyl-Ile-Ala-Ala-Pro-Tyr-OH [Example 40] |  |  | Slope of the initial increase in fluorescence obtained during incubation with 0.001 mg/ml Chymotrypsin (Chymotrypsin; [1]): 0.41; Slope of the initial increase in fluorescence obtained during incubation with 0.001 mg/ml Trypsin (Trypsin; [1]): 1.31
17 | N-tetradecanoyl-γGlu-γGlu-Pro-Phe-OH [Example 170] | > 500 |  | 
18 | N-dodecanoyl-γGlu-Ala-Ala-Pro-Arg-Pro-OH [Example 27] | > 500 |  | 

Row | Substance | EC50 (Chymotrypsin) [µM] | EC50 (Trypsin) [µM] | other results
19 | N-tetradecanoyl-γGlu-Ala-Arg-Pro-Phe-OH [Example 179] | 84 | 80 | 
20 | N-tetradecanoyl-Glu-Ala-Ala-Pro-Trp-OH [Example 143] | 14 | 388 | 
21 | N-tetradecanoyl-His-Ala-Ala-Pro-Phe-OH [Example 166] | 61 | 69 | 
22 | N-hexadecanoyl-Ala-Ala-Pro-Phe-OH (Palmitoyl-AAPF-OH) [Example 29] | 23 ± 2 | > 500 | 
23 | N-tetradecanoyl-Leu-Ala-Ala-Pro-Tyr-OH [Example 142] | 20 | 37 | 
24 | N-tetradecanoyl-γGlu-Ala-Pro-Phe-OH [Example 181] | 300 |  | 
25 | N-dodecanoyl-Ala-Pro-Phe-OH [Example 35] | 182 |  | 
26 | N-tetradecanoyl-Glu-Ala-Ala-Pro-D-Phe-OH [Example 174] | 211 |  | 
27 | N-tetradecanoyl-Ala-Ala-Ala-Ala-Pro-Phe-OH [Example 140] | 28 | 374 | 
28 | N-hexadecanoyl-γGlu-DAla-DPro-DPhe-OH [Example 155] | 56 | 76 | 
29 | N-tetradecanoyl-γGlu-Ala-Pro-D-Trp-OH [Example 177] | 95 | 200 | 
30 | N-hexadecanoyl-γGlu-D-Ala-D-Ala-D-Pro-D-Phe-OH [Example 157] | 57 | 88 | 
31 | N-dodecanoyl-Thr-Ala-Ala-Pro-Phe-OH [Example 172] | 132 | 401 | 
32 | N-tetradecanoyl-Glu-Ala-Ala-Pro-Phe-OH [Example 162] | 94 | 58 | 
33 | N-icosanoyl-γGlu-Ala-Ala-Pro-Phe-OH [Example 161] | 4 | 7 | 
34 | N-tetradecanoyl-Glu-Ala-Pro-Phe-OH (Myristoyl-EAPF-OH; SMILES CCCCCCCCCCCCCC(=O)N[C@@H](CCC(=O)O)C(=O)N[C@@H](C)C(=O)N1CCC[C@H]1C(=O)N[C@@H](Cc1ccccc1)C(=O)O) [Example 152] | 293 |  | 
35 | N-tetradecanoyl-Glu-Ala-Ala-Pro-Phe-OH [Example 163] (Myristoyl-EAAPF-OH; SMILES CCCCCCCCCCCCCC(=O)N[C@@H](CCC(=O)O)C(=O)N[C@@H](C)C(=O)N[C@@H](C)C(=O)N1CCC[C@H]1C(=O)N[C@@H](Cc1ccccc1)C(=O)O) | 94 | 271 | 
36 | N-tetradecanoyl-Thr-Ala-Ala-Pro-Tyr-OH [Example 158] | 58 | 112 | 

Second part, led by results:

Row | EC50 (Chymotrypsin) [µM] | EC50 (Trypsin) [µM] | Substance | other results
37 | 9 | 13 | N-icosanoyl-γGlu-Ala-Pro-Phe-OH (icosanoyl-[γGlu]APF-OH) [Example 151] | 
38 | 13 | 22 | N-octadecanoyl-γGlu-Ala-Pro-Phe-OH (Stearoyl-[γGlu]APF-OH; SMILES CCCCCCCCCCCCCCCCCC(=O)N[C@@H](CCC(=O)N[C@@H](C)C(=O)N1CCC[C@H]1C(=O)N[C@@H](Cc1ccccc1)C(=O)O)C(=O)O) [Example 150] | 
39 | 17 | 7 | N-tetradecanoyl-D-His-D-Ala-D-Arg-D-Pro-D-Phe-OH [Example 195] | 
40 | 154 | 120 | N-tetradecanoyl-bAsp-Ala-Pro-Phe-OH (Myristoyl-[βAsp]APF-OH; SMILES CCCCCCCCCCCCCC(=O)N[C@@H](CC(=O)N[C@@H](C)C(=O)N1CCC[C@H]1C(=O)N[C@@H](Cc1ccccc1)C(=O)O)C(=O)O) [Example 165] | 
41 | 105 | 63 | N-tetradecanoyl-γGlu-Ala-Pro-Trp-OH (Myristoyl-[γGlu]APW-OH; SMILES CCCCCCCCCCCCCC(=O)N[C@@H](CCC(=O)N[C@@H](C)C(=O)N1CCC[C@H]1C(=O)N[C@@H](Cc1c[nH]c2ccccc12)C(=O)O)C(=O)O) [Example 176] | 
42 | 71 | 67 | N-hexadecanoyl-γGlu-Ala-Ala-Pro-Phe-OH [Example 188] | 
43 | 386 |  | N-tetradecanoyl-γGlu-D-Ala-D-Pro-D-Phe-OH [Example 183] | 
44 | 136 | 177 | N-tetradecanoy-γGlu-His-Ala-Ala-Pro-Tyr-OH [Example 191] | 
45 | 34 | 303 | N-tetradecanoyl-His-Ala-Trp-Pro-Phe-OH [Example 192] | 
46 | 48 | 57 | N-hexadecanoyl-γGlu-Ala-Pro-Phe-OH (Palmitoyl-[γGlu]APF-OH; SMILES CCCCCCCCCCCCCCCC(=O)N[C@@H](CCC(=O)N[C@@H](C)C(=O)N1CCC[C@H]1C(=O)N[C@@H](Cc1ccccc1)C(=O)O)C(=O)O) [Example 149] | 
47 | > 500 |  | PEG12-Ala-Ala-Pro-Phe-OH ([PEG12′]AAPF-OH) [Example 167] | 
48 | 2 | 16 | N-tetradecanoyl-Arg-His-Ala-Arg-Pro-Phe-OH [Example 197] | 
49 | 69 | 38 | N-tetradecanoyl-D-Ala-D-Ala-D-Pro-D-Phe-OH [Example 184] | 
50 | 67 | 33 | N-hexadecanoyl-γGlu-D-Ala-D-Pro-D-Phe-OH [Example 182] | 
51 | 6 | 75 | N-tetradecanoyl-eLys-His-Ala-Arg-Pro-Phe-OH [Example 196] | 
52 | 56 |  | N-hexadecanoyl-Glu-Ala-Ala-Pro-D-Phe-OH [Example 186] | 
53 | 14 | 130 | N-tetradecanoyl-Glu-Ala-Ala-Pro-Trp-OH [Example 187] | 
54 | > 500 |  | N-dodecanoyl-γGlu-His-Ala-Ala-Pro-Tyr-OH [Example 190] | 
